Test results reported in patent US20040152648A1, “Pyruvate-kinase as a novel target molecule” (priority 2001, published 2004).
Where a SMILES comes first, the peptide text is derived from it. [ ]: non-standard residue; d: D form. Nle = CCCC[C@H](N)C(=O)O

Tests used:
Format in all cases: cell-based
[1] = test system: nuclear PK-M2 processing in Cos-7 cells; assay: protease inhibitor pre-treatment, electrophoretic mobility of nuclear PK-M2; settings: Cos-7 cells pre-treated with protease inhibitor
[2] = biological target: T1, pEGFP-PK-M2 (pyruvate-kinase fused to GFP) in Cos-7 cells (Homo sapiens, UniProt P14618); assay: nuclear translocation of GFP-fused pyruvate-kinase in transiently transfected Cos-7 cells; settings: pEGFP-PK-M2, 1 mM hydrogen peroxide for 4 hours, FIG. 4
T1 construct: producing wild type pyruvate-kinase N-terminally fused to GFP; expressed in transfected cells; host or cells: Cos-7
Excerpt: Nuclear translocation of the pyruvate-kinase upon different apoptotic stimuli. Cos-7 cells were transiently transfected with pEGFP-PK-M2 eukaryotic expression plasmid (producing wild type pyruvate-kinase N-terminally fused to GFP)
Nuclear translocation of the pyruvate-kinase deletion mutants upon apoptotic stimuli. […] (Ex: 485 nm=GFP, Ex: 390=propidium-iodide)
Cells were fixed with 1% glutaraldehyde and the localisation of GFP was detected and analysed with fluorescent microscope and InoVision confocal imaging software. Nuclei were stained with propidium-iodine (FIG. 5).

[3] = test system: endogenous PK-M2 in Cos-7 cells; assay: subcellular localisation of endogenous PK-M2, cytosolic/nuclear fractions, Western-blot; settings: 50 μM TT-232 or 100 μM hydrogen-peroxide, FIG. 8
Description: Subcellular localisation of endogenous PK-M2 upon peroxide or UV stimulation. Cos-7 cells were untreated, treated with 50 μM TT-232 (A), 100 μM hydrogen-peroxide (B), or 120 mJ/cm^2 UV (C) and incubated for different times as indicated. Cells were separated into cytosolic (c) or nuclear (n) fractions loaded in triplicate and blotted with PK-M2 (uppest panels), Erk-2 (middle panels) or Histone H1 (lowest panels).
In order investigate further Cos-7 cells were treated, separated into cytosolic and nuclear fractions by NP-40 lysis and analysed with polyclonal PKM2 specific antibody (Weernink et al., 1988) for endogenous PK-M2 by Western-blots. To rule out cross contamination, samples were loaded in triplicate and blotted with PK-M2, Erk-2 or Histone H1 antibodies.

T1 sequence (P14618 whole entry, the tested form may be a part): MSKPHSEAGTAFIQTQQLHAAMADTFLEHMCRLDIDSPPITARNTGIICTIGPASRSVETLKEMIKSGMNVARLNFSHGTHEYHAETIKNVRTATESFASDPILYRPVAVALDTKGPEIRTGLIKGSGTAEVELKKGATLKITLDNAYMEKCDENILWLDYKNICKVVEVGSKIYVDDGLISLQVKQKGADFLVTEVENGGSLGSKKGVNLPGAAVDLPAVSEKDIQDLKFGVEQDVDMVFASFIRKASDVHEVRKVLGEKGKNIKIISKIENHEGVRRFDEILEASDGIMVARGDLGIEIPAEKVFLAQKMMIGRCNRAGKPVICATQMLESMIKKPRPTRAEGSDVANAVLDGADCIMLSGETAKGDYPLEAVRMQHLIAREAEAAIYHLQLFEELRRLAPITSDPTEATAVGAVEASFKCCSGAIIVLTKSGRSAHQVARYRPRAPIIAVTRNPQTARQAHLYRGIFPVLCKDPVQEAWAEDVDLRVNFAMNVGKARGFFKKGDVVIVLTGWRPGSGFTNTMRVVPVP

SMILES	reversal of increased electrophoretic mobility of nuclear enzyme [1]	nuclear translocation of GFP-fused pyruvate-kinase [2]	translocation of endogenous PK-M2 into the nucleus [3]
NCCc1ccc(S(=O)(=O)F)cc1 [AEBSF]	not able to revert this effect	–	–
CCCC[C@@H](C=O)NC(=O)[C@H](CC(C)C)NC(=O)[C@H](CC(C)C)NC(C)=O [ALLN] (Ac-Leu-Leu-[Nle]-aldehyde)	not able to revert this effect	–	–
Cc1ccc(S(=O)(=O)N[C@@H](Cc2ccccc2)C(=O)CCl)cc1 [TPCK]	not able to revert this effect	–	–
OO [hydrogen peroxide]	–	nuclear translocation of the pyruvate-kinase occurs	induced the translocation of the endogenous PK-M2 into the nucleus
